According to patent US12065436B2, “Cardiac sarcomere inhibitors” (Cytokinetics, Inc., priority 2018, dated 2024):
Where two headings read alike, the source gives them in different places.

Legend:
[1] = molecular target: bovine cardiac myofibrils (full-length cardiac myosin ATPase in the native sarcomere) (Bos taurus (Bovine), UniProt Q9BE39); test: Skinned bovine cardiac myofibril ATPase assay (PK/LDH-coupled); type: biochemical; conditions: Ca2+ activating to 75% of maximal rate; for CDMF75 IC15: concentration giving 15% inhibition; for IC50: read-out: CDMF75 IC50
Method in brief: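 Inhibition of steady-state ATPase read at 340 nm through a PK/LDH-coupled NADH system (0.5 mM NADH, 1.5 mM PEP). Detergent-skinned bovine cardiac myofibrils, 1 mg/mL, were tested at pH 6.8 in PIPES/MgCl2 with 50 μM ATP and calcium adjusted to give pCa50 or pCa75 activation.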

[2] = tested on: rat cardiac contractility (left ventricle fractional shortening); test: Echocardiography of acute effect on rat cardiac contractility, continuous IV infusion; type: in vivo, Sprague Dawley rats; conditions: Rattus norvegicus, plasma concentration at which fractional shortening is 50% of pre-dose baseline, estimated, read-out: IC50 (Mean ± S.D.)
Description: (§1) Assessment of in vivo cardiac function by echocardiography was performed in male Sprague Dawley rats under isoflurane (1-3%) anesthesia. 2-D M-mode images of the left ventricle were acquired in the parasternal long-axis view before, during, and after administration of compounds by continuous IV infusion or oral gavage. In vivo fractional shortening was determined by M-mode image analysis with the following calculation: ((End diastolic diameter−end systolic diameter)/end diastolic diameter×100). For continuous IV infusion experiments, three pre-dose baseline M-mode images were taken at 1 minute intervals prior to infusion of compound. Compounds were formulated in 50% Propylene Glycol (PG): 16% Captisol: 10% dimethylacetamide (DMA) and delivered via a jugular vein catheter at the rate of 1 mL/kg/h. During infusion, M-mode images were taken at 5 minute intervals. The infusion stopped when fractional shortening reached up to a 60% reduction from baseline. Blood samples were taken to determine the plasma concentration of the compounds. Data was reported as an estimated IC50 value, which is the concentration at which fractional shortening is 50% of the pre-dose baseline contractility.

[3] = tested on: rat cardiac contractility (left ventricle fractional shortening); test: Echocardiography of acute effect on rat cardiac contractility, oral gavage; type: in vivo, Sprague Dawley rats; conditions: for inhibition in vivo at 6 mg/kg / IC50 / inhibition in vivo at 8 mg/kg / inhibition in vivo at 4 mg/kg / inhibition in vivo at 10 mg/kg: Rattus norvegicus; for inhibition in vivo at 6 mg/kg / inhibition in vivo at 8 mg/kg / inhibition in vivo at 4 mg/kg / inhibition in vivo at 10 mg/kg: oral gavage; for IC50 / IC10: oral dosing, estimated; for IC50: plasma concentration at which fractional shortening is 50% of pre-dose baseline; for IC10: plasma concentration at which
Description: as §1
For oral dosing studies, three pre-dose baseline M-Mode images were taken at 1 minute intervals prior to compound administration. Compounds were formulated in a 0.5% hydroxypropyl methylcellulose 2910 (HPMC 2910): 0.1% Tween 80 suspension and delivered as a single dose (5 mL/kg) by oral gavage. Rats were lightly anesthetized for M-Mode echocardiography measurements at select time points over a 24 hour period. Different dose levels were evaluated for each compound. The compound effect on cardiac fractional shortening at the highest dose evaluated is presented in Table D as a percent reduction of baseline fractional shortening (=100%).
Concurrent with echocardiography measurements, blood samples were taken to determine the corresponding compound plasma concentration.

[4] = 1 h, 1-2 h post dose, read-out: FS (% reduction from baseline) at 1-2 h post dose (Mean ± S.D.)
[5] = 4 h post dose, read-out: FS (% reduction from baseline) at 4 h post dose (Mean ± S.D.)

Chain of bovine cardiac myofibrils (full-length cardiac myosin ATPase in the native sarcomere) (Q9BE39 whole entry): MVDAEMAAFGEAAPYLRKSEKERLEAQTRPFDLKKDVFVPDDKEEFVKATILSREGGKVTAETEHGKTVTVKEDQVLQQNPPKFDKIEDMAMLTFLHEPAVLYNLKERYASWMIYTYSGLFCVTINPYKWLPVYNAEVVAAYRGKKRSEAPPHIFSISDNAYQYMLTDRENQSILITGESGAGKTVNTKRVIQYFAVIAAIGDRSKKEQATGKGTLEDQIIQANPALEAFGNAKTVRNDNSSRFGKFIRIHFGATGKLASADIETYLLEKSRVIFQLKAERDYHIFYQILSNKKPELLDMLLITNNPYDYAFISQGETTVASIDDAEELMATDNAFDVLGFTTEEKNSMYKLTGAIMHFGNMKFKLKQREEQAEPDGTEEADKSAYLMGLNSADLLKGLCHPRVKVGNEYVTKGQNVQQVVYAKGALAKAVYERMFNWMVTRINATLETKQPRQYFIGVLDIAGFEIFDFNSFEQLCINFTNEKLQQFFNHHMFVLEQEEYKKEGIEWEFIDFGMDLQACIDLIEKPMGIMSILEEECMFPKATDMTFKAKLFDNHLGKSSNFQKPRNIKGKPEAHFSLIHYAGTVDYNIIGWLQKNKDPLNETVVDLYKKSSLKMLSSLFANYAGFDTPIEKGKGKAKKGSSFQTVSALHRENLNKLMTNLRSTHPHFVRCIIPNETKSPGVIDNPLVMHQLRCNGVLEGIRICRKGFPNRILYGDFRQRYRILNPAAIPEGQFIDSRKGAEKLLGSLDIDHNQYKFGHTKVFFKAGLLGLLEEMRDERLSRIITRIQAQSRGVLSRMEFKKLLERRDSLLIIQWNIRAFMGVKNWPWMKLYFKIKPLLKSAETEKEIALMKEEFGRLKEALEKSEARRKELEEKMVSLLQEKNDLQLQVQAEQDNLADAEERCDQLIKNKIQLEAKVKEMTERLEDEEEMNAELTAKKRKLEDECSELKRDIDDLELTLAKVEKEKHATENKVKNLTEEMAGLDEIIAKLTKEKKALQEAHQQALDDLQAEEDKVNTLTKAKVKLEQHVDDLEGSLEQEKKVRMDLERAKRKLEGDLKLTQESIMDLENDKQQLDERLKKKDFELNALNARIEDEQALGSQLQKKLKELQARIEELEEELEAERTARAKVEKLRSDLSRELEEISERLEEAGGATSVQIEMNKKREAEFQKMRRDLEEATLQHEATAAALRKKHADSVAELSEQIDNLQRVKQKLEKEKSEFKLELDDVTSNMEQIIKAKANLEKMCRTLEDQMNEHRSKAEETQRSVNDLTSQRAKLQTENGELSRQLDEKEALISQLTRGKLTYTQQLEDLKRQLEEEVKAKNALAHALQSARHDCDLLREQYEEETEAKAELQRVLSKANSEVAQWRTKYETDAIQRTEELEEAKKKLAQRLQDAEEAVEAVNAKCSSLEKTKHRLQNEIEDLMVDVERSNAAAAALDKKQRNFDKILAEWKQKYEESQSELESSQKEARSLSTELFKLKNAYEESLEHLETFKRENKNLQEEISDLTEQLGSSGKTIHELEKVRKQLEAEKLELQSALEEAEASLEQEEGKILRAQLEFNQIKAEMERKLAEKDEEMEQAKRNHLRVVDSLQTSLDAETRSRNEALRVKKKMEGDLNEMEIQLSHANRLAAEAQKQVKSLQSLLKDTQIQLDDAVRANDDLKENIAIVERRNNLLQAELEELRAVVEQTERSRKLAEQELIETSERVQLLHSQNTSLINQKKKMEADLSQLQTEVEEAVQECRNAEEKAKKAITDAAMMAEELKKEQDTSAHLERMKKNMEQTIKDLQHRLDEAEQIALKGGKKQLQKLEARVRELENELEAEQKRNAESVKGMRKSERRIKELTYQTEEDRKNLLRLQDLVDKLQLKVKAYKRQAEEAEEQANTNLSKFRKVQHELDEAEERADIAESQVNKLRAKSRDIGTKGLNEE
Chain of bovine cardiac myofibrils (full-length cardiac myosin ATPase in the native sarcomere) (P85100 whole entry partner): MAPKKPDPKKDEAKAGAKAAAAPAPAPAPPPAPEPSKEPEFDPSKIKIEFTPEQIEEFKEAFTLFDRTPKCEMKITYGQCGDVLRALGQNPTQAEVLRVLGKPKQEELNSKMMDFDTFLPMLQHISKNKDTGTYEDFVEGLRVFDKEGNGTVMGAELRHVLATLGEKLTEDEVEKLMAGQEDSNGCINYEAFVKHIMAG
Chain of bovine cardiac myofibrils (full-length cardiac myosin ATPase in the native sarcomere) (Q3SZE5 whole entry partner): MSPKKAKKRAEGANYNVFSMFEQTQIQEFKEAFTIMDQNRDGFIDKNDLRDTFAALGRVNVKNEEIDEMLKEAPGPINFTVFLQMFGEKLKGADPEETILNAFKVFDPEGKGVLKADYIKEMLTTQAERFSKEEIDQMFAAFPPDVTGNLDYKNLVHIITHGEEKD

| SMILES | CDMF75 IC15 [1] [µM] | IC50 [1] [nM] | IC50 [2] [nM] | IC50 [3] [µM] | IC10 [3] [µM] | also measured |
| --- | --- | --- | --- | --- | --- | --- |
| Cn1nnc(C(=O)N[C@@H]2CCc3cc(-c4noc(C5CC5)n4)ccc32)n1 [Compound 141, (R)—N-(5-(5-cyclopropyl-1,2,4-oxadiazol-3-yl)-2,3-dihydro-1H-inden-1-yl)-2-methyl-2H-tetrazole-5-carboxamide] | 0.3 | 900 | 1500 ± 50 | – | – | – |
| COCc1nc(-c2ccc3c(c2)CC[C@H]3NC(=O)c2nnn(C)n2)no1 [Compound 144, (R)-N-(5-(5-(methoxymethyl)-1,2,4-oxadiazol-3-yl)-2,3-dihydro-1H-inden-1-yl)-2-methyl-2H-tetrazole-5-carboxamide] | 0.6 | 2300 | 3400 ± 120 | – | – | – |
| Cc1nc(-c2ccc3c(c2)OC[C@H]3NC(=O)c2cn(C)nc2C)no1 [Compound 158, (S)-1,3-dimethyl-N-(6-(5-methyl-1,2,4-oxadiazol-3-yl)-2,3-dihydrobenzofuran-3-yl)-1H-pyrazole-4-carboxamide] | 0.7 | 2800 | 1100 ± 30 | – | – | – |
| Cc1nc(-c2ccc3c(c2)OC[C@H]3NC(=O)c2cnn(C)c2)no1 [Compound 211, (S)-1-methyl-N-(6-(5-methyl-1,2,4-oxadiazol-3-yl)-2,3-dihydrobenzofuran-3-yl)-1H-pyrazole-4-carboxamide] | 0.8 | 2800 | 5400 ± 250 | – | – | – |
| Cn1nccc1C(=O)N[C@@H]1COc2cc(-c3noc(C4CC4)n3)ccc21 [Compound 222, (S)—N-(6-(5-cyclopropyl-1,2,4-oxadiazol-3-yl)-2,3-dihydrobenzofuran-3-yl)-1-methyl-1H-pyrazole-5-carboxamide] | 0.3 | 1000 | 1100 ± 30 | – | – | – |
| Cn1cc(C(=O)N[C@@H]2COc3cc(-c4noc(C5CC5)n4)ccc32)cn1 [Compound 236, (S)—N-(6-(5-cyclopropyl-1,2,4-oxadiazol-3-yl)-2,3-dihydrobenzofuran-3-yl)-1-methyl-1H-pyrazole-4-carboxamide] | 0.5 | 1800 | 11400 ± 600 | – | – | – |
| CCc1nc(-c2ccc3c(c2)CC[C@H]3NC(=O)OC)no1 [Compound 304, methyl (R)-(5-(5-ethyl-1,2,4-oxadiazol-3-yl)-2,3-dihydro-1H-inden-1-yl)carbamate] | 0.2 | 700 | 1700 ± 60 | – | – | – |
| CCc1cc(-c2ccc3c(c2)OC[C@H]3NC(=O)c2nnn(C)n2)no1 [Compound 365, (S)-N-(6-(5-ethylisoxazol-3-yl)-2,3-dihydrobenzofuran-3-yl)-2-methyl-2H-tetrazole-5-carboxamide] | 0.6 | 2200 | 4600 ± 170 | – | – | – |
| Cc1ncc(C(=O)N[C@@H]2CCc3cc(-c4noc(C5CC5)n4)ccc32)o1 [Compound 388, (R)-N-(5-(5-cyclopropyl-1,2,4-oxadiazol-3-yl)-2,3-dihydro-1H-inden-1-yl)-2-methyloxazole-5-carboxamide] | 0.9 | 2800 | 5400 ± 100 | – | – | – |
| Cc1n[nH]cc1C(=O)N[C@@H]1CCc2cc(-c3noc(C4CC4)n3)ccc21 [Compound 420, (R)-N-(5-(5-cyclopropyl-1,2,4-oxadiazol-3-yl)-2,3-dihydro-1H-inden-1-yl)-3-methyl-1H-pyrazole-4-carboxamide] | 0.4 | 1400 | 2100 ± 50 | – | – | – |
| O=C(N[C@@H]1CCc2cc(-c3noc(C4CC4)n3)ccc21)c1cn[nH]c1 [Compound 489, (R)-N-(5-(5-cyclopropyl-1,2,4-oxadiazol-3-yl)-2,3-dihydro-1H-inden-1-yl)-1H-pyrazole-4-carboxamide] | 0.6 | 2200 | – | 2.4 | 0.7 | inhibition in vivo at 6 mg/kg [3, 4]: 65 ± 6%; inhibition in vivo at 6 mg/kg [3, 5]: 35 ± 6% |

Second part, led by results:

| CDMF75 IC15 [1] [µM] | IC50 [1] [nM] | IC50 [2] [nM] | IC50 [3] [µM] | SMILES | IC10 [3] [µM] | also measured |
| --- | --- | --- | --- | --- | --- | --- |
| 0.3 | 1100 | – | 37 | CCc1nc(-c2ccc3c(c2)CC[C@H]3NC(=O)c2cc(C)no2)no1 [Compound 565, (R)-N-(5-(5-ethyl-1,2,4-oxadiazol-3-yl)-2,3-dihydro-1H-inden-1-yl)-3-methylisoxazole-5-carboxamide] | 11 | inhibition in vivo at 8 mg/kg [3, 4]: 55 ± 13%; inhibition in vivo at 8 mg/kg [3, 5]: 43 ± 13% |
| 0.4 | 1300 | – | 0.7 | CCc1nc(-c2ccc3c(c2)CC[C@H]3NC(=O)c2ccnc(CO)c2)no1 [Compound 577, (R)-N-(5-(5-ethyl-1,2,4-oxadiazol-3-yl)-2,3-dihydro-1H-inden-1-yl)-2-(hydroxymethyl)isonicotinamide] | 0.1 | inhibition in vivo at 4 mg/kg [3, 4]: 67 ± 6%; inhibition in vivo at 4 mg/kg [3, 5]: 34 ± 11% |
| 0.7 | 2300 | – | 1.6 | CCc1nc(-c2ccc3c(c2)CC[C@H]3NC(=O)c2ccc(=O)n(C)c2)no1 [Compound 589, (R)-N-(5-(5-ethyl-1,2,4-oxadiazol-3-yl)-2,3-dihydro-1H-inden-1-yl)-1-methyl-6-oxo-1,6-dihydropyridine-3-carboxamide] | 0.3 | inhibition in vivo at 6 mg/kg [3, 4]: 73 ± 12%; inhibition in vivo at 6 mg/kg [3, 5]: 46 ± 3% |
| 0.3 | 1200 | – | 1.2 | CCc1nc(-c2ccc3c(c2)CC[C@H]3NC(=O)c2nnc(C)o2)no1 [Compound 617, (R)-N-(5-(5-ethyl-1,2,4-oxadiazol-3-yl)-2,3-dihydro-1H-inden-1-yl)-5-methyl-1,3,4-oxadiazole-2-carboxamide] | 0.3 | inhibition in vivo at 6 mg/kg [3, 4]: 64 ± 4%; inhibition in vivo at 6 mg/kg [3, 5]: 37 ± 7% |
| 0.5 | 1900 | – | 3.3 | O=C(N[C@@H]1CCc2cc(-c3noc(C(F)F)n3)ccc21)c1ccnc(CO)c1 [Compound 664, (R)-N-(5-(5-(difluoromethyl)-1,2,4-oxadiazol-3-yl)-2,3-dihydro-1H-inden-1-yl)-2-(hydroxymethyl)isonicotinamide] | 1.2 | inhibition in vivo at 6 mg/kg [3, 4]: 65 ± 4%; inhibition in vivo at 6 mg/kg [3, 5]: 38 ± 5% |
| 0.9 | 3700 | – | 8.3 | COCc1nc(-c2ccc3c(c2)CC[C@H]3NC(=O)c2nnc(C)o2)no1 [Compound 697, (R)-N-(5-(5-(methoxymethyl)-1,2,4-oxadiazol-3-yl)-2,3-dihydro-1H-inden-1-yl)-5-methyl-1,3,4-oxadiazole-2-carboxamide] | 3.3 | inhibition in vivo at 10 mg/kg [3, 4]: 70 ± 2%; inhibition in vivo at 10 mg/kg [3, 5]: 45 ± 3% |
| 0.6 | 2300 | – | 4.3 | O=C(N[C@@H]1COc2cc(-c3noc(C(F)F)n3)ccc21)c1ccnc(CO)c1 [Compound 709, (S)-N-(6-(5-(difluoromethyl)-1,2,4-oxadiazol-3-yl)-2,3-dihydrobenzofuran-3-yl)-2-(hydroxymethyl)isonicotinamide] | 1.5 | inhibition in vivo at 8 mg/kg [3, 4]: 68 ± 2%; inhibition in vivo at 8 mg/kg [3, 5]: 31 ± 3% |
| 1.2 | 4100 | – | 4.7 | COCc1nc(-c2ccc3c(c2)CC[C@H]3NC(=O)c2ccnc(CO)c2)no1 [Compound 727, (R)-2-(hydroxymethyl)-N-(5-(5-(methoxymethyl)-1,2,4-oxadiazol-3-yl)-2,3-dihydro-1H-inden-1-yl)isonicotinamide] | 1.2 | inhibition in vivo at 8 mg/kg [3, 4]: 63 ± 1%; inhibition in vivo at 8 mg/kg [3, 5]: 33 ± 1% |
